Reference: PubChem BioAssay AID330 (DTP/NCI, 2004)
Several values for one entry are separate records, joined by “and”; a condition that tells them apart may be missing. Identical values can stand only once. Toxic doses and inconclusive results are not listed. Rule for the calls: active = survival T/C of 150% or more; inactive = T/C below 125% in these data.

System: P388 leukemia ip, CD2F1 mice, survival T/C
Assay: NCI In Vivo Anticancer Drug Screen. Data for tumor model P388 Leukemia (intraperitoneal) in CD2F1 (CDF1) mice
Conditions: endpoint: median survival time, higher = longer survival
In short: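 Mice carrying the transplanted tumor received test compound or vehicle. Survival was recorded in each group, and the value is the treated-group measurement divided by that of the vehicle-treated control group.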

[1] = dose: 50.0 mg/kg/injection, schedule: Q01DX005 (ip), vehicle: saline with Tween-80
[2] = dose: 100.0 mg/kg/injection, schedule: Q01DX005 (ip), vehicle: saline with Tween-80
[3] = dose: 200.0 mg/kg/injection, schedule: Q01DX005 (ip), vehicle: saline with Tween-80
[4] = dose: 50.0 mg/kg/injection, schedule: Q01DX009 (ip), vehicle: Klucel (hydroxypropylcellulose) (HPC)
[5] = dose: 100.0 mg/kg/injection, schedule: Q01DX009 (ip), vehicle: Klucel (hydroxypropylcellulose) (HPC)
[6] = dose: 200.0 mg/kg/injection, schedule: Q01DX009 (ip), vehicle: Klucel (hydroxypropylcellulose) (HPC)
[7] = dose: 60.0 mg/kg/injection, schedule: Q01DX005 (ip), vehicle: saline with Tween-80
[8] = dose: 120.0 mg/kg/injection, schedule: Q01DX005 (ip), vehicle: saline with Tween-80
[9] = dose: 50.0 mg/kg/injection, schedule: Q01DX009 (ip), vehicle: saline with Tween-80
[10] = dose: 25.0 mg/kg/injection, schedule: Q01DX009 (ip), vehicle: saline with Tween-80
[11] = dose: 100.0 mg/kg/injection, schedule: Q01DX009 (ip), vehicle: saline with Tween-80
[12] = dose: 200.0 mg/kg/injection, schedule: Q01DX009 (ip), vehicle: saline with Tween-80
[13] = dose: 25.0 mg/kg/injection, schedule: Q01DX005 (ip), vehicle: Klucel (hydroxypropylcellulose) (HPC)
[14] = dose: 50.0 mg/kg/injection, schedule: Q01DX005 (ip), vehicle: Klucel (hydroxypropylcellulose) (HPC)
[15] = dose: 100.0 mg/kg/injection, schedule: Q01DX005 (ip), vehicle: Klucel (hydroxypropylcellulose) (HPC)
[16] = dose: 200.0 mg/kg/injection, schedule: Q01DX005 (ip), vehicle: Klucel (hydroxypropylcellulose) (HPC)
[17] = dose: 25.0 mg/kg/injection, schedule: Q04DX003 (ip), vehicle: Klucel (hydroxypropylcellulose) (HPC)
[18] = dose: 50.0 mg/kg/injection, schedule: Q04DX003 (ip), vehicle: Klucel (hydroxypropylcellulose) (HPC)
[19] = dose: 100.0 mg/kg/injection, schedule: Q04DX003 (ip), vehicle: Klucel (hydroxypropylcellulose) (HPC)

Measured: T/C

Nc1nnc(-c2cc(=O)c3cc(Cl)ccc3o2)s1
inactive: [1] 97 % of control | [2] 100 % of control | [3] 93 % of control

O=C1c2ccccc2OC2CCON12 (stereo not given)
inactive: [4] 100 % of control | [5] 100 % of control | [6] 116 % of control

Cc1ccc(/C=C/C(=O)/C=C/c2ccc(C)o2)o1
inactive: dose: 25.0 mg/kg/injection, schedule: Q01DX005 (ip), vehicle: DMSO 107 % of control | dose: 50.0 mg/kg/injection, schedule: Q01DX005 (ip), vehicle: DMSO 104 % of control | [1] 99 % of control | dose: 100.0 mg/kg/injection, schedule: Q01DX005 (ip), vehicle: DMSO 104 % of control | [2] 96 % of control | dose: 200.0 mg/kg/injection, schedule: Q01DX005 (ip), vehicle: DMSO 97 % of control | [3] 100 % of control | dose: 400.0 mg/kg/injection, schedule: Q01DX005 (ip), vehicle: DMSO 101 % of control

CCOC(=O)c1cc2c(ccc3ccccc32)[nH]1
inactive: [7] 97 % of control | [8] 89 % of control

CCCC(NC(N)=O)C(CCC)NC(N)=O (stereo not given)
inactive: [9] 102 % of control

Nc1ncncc1-c1ccc2ccccc2c1
inactive: [4] 95 % of control | [5] 92 % of control | [6] 96 % of control

CN(C)C(=O)c1ccc([N+](=O)[O-])cc1
inactive: [10] 119 % of control | [9] 98 % of control | [11] 96 % of control | [12] 104 % of control

O=C1N(C2CCCCC2)C(/C=C/c2ccccc2)C1(c1ccccc1)c1ccccc1 (stereo not given)
inactive: [13] 96 % of control | [14] 94 % of control | [15] 88 % of control | [16] 89 % of control and 91 % of control

NC(=S)c1cccc(C=Nc2ccccc2)n1
inactive: dose: 12.5 mg/kg/injection, schedule: Q04DX003 (ip), vehicle: Klucel (hydroxypropylcellulose) (HPC) 106 % of control | [17] 105 % of control | [18] 97 % of control | [19] 91 % of control

O=C1CCCCC1C(O)c1c(Cl)cccc1Cl (stereo not given)
inactive: [9] 99 % of control | [11] 99 % of control | [12] 100 % of control

CN1/C(=C/C(=S)SCC(=O)c2ccccc2)C=Cc2ccccc21
inactive: dose: 50.0 mg/kg/injection, schedule: Q04DX002 (ip), vehicle: saline with Tween-80 94 % of control | dose: 100.0 mg/kg/injection, schedule: Q04DX002 (ip), vehicle: saline with Tween-80 90 % of control | dose: 200.0 mg/kg/injection, schedule: Q04DX002 (ip), vehicle: saline with Tween-80 88 % of control

Clc1ccc(N2C(c3ccccc3)=N[C@@H](N3CCCCC3)[C@@H]2N2CCCCC2)cc1
inactive: [14] 102 % of control | [15] 98 % of control | [16] 93 % of control

COC(=O)/C=C(\Cl)C(=O)OC
inactive: dose: 0.62 mg/kg/injection, schedule: Q01DX009 (ip), vehicle: saline with Tween-80 101 % of control | dose: 1.25 mg/kg/injection, schedule: Q01DX009 (ip), vehicle: saline with Tween-80 101 % of control | dose: 2.5 mg/kg/injection, schedule: Q01DX009 (ip), vehicle: saline with Tween-80 105 % of control | dose: 5.0 mg/kg/injection, schedule: Q01DX009 (ip), vehicle: saline with Tween-80 102 % of control | dose: 10.0 mg/kg/injection, schedule: Q01DX009 (ip), vehicle: saline with Tween-80 105 % of control

CCCCOC(=O)NP1(=O)NCc2ccccc2CN1
inactive: dose: 12.5 mg/kg/injection, schedule: Q01DX005 (ip), vehicle: Klucel (hydroxypropylcellulose) (HPC) 93 % of control | [13] 87 % of control | [14] 91 % of control and 93 % of control | [16] 91 % of control

CN(C)C1=CC(=Nc2ccccc2)SC(C)(C)C1
inactive: dose: 15.0 mg/kg/injection, schedule: Q01DX005 (ip), vehicle: saline with Tween-80 100 % of control | dose: 30.0 mg/kg/injection, schedule: Q01DX005 (ip), vehicle: saline with Tween-80 100 % of control | dose: 60.0 mg/kg/injection, schedule: Q01DX005 (ip), vehicle: Klucel (hydroxypropylcellulose) (HPC) 100 % of control | [7] 99 % of control

COC(=O)c1c(-c2ccc(OC)cc2)c(-c2ccc(OC)cc2)[nH]c(=O)c1C#N
inactive: [7] 100 % of control | [8] 100 % of control | dose: 240.0 mg/kg/injection, schedule: Q01DX005 (ip), vehicle: saline with Tween-80 99 % of control

NC(CSCCNc1ccc([N+](=O)[O-])cc1[N+](=O)[O-])C(=O)O (stereo not given)
inactive: [17] 99 % of control | [18] 100 % of control | [19] 89 % of control | dose: 200.0 mg/kg/injection, schedule: Q04DX003 (ip), vehicle: Klucel (hydroxypropylcellulose) (HPC) 99 % of control

CCOC(=O)C(C#N)C(c1ccc2c(c1)OCO2)N(CCO)CCO (stereo not given)
inactive: [14] 93 % of control | [15] 99 % of control | [16] 99 % of control

CCCCCCCCCCCC(=O)c1c(O)c2ccccc2oc1=O
inactive: [1] 95 % of control | [2] 94 % of control

O=C1/C(=C/c2cccc(O)c2O)SC(=S)N1CCCN1CCOCC1
inactive: [9] 98 % of control | [11] 107 % of control | [12] 92 % of control

CCOC(=O)C(=CNc1ccc2n[nH]nc2c1)C(=O)OCC
inactive: [4] 100 % of control | [5] 108 % of control

ClC(Cl)(Cl)C1=NCc2nnn(Cc3ccccc3)c2N1
inactive: dose: 6.25 mg/kg/injection, schedule: Q01DX009 (ip), vehicle: Klucel (hydroxypropylcellulose) (HPC) 113 % of control | dose: 6.25 mg/kg/injection, schedule: Q01DX009 (ip), vehicle: saline with Tween-80 118 % of control | dose: 12.5 mg/kg/injection, schedule: Q01DX009 (ip), vehicle: Klucel (hydroxypropylcellulose) (HPC) 114 % of control | dose: 12.5 mg/kg/injection, schedule: Q01DX009 (ip), vehicle: saline with Tween-80 115 % of control and 117 % of control | [10] 105 % of control and 106 % of control | [4] 104 % of control | [11] 110 % of control | [12] 100 % of control and 113 % of control | dose: 400.0 mg/kg/injection, schedule: Q01DX009 (ip), vehicle: saline with Tween-80 96 % of control

CCCCCCCC#CC(=O)O
inactive: [9] 88 % of control | [11] 89 % of control | [12] 86 % of control

O=C(OC1(c2nccc3ccccc23)CCCCC1)c1ccccc1
inactive: dose: 25.0 mg/kg/injection, schedule: Q01DX009 (ip), vehicle: Klucel (hydroxypropylcellulose) (HPC) 97 % of control | [4] 93 % of control | dose: 100.0 mg/kg/injection, schedule: Q01DX001 (ip), vehicle: Klucel (hydroxypropylcellulose) (HPC) 103 % of control | dose: 200.0 mg/kg/injection, schedule: Q01DX001 (ip), vehicle: Klucel (hydroxypropylcellulose) (HPC) 94 % of control | dose: 400.0 mg/kg/injection, schedule: Q01DX001 (ip), vehicle: Klucel (hydroxypropylcellulose) (HPC) 92 % of control

O=C(OC1CC2CCCCC2CC1(O)c1ccccc1)c1cccc(Cl)c1 (stereo not given)
inactive: dose: 100.0 mg/kg/injection, schedule: Q01DX001 (ip), vehicle: acetone 99 % of control | dose: 200.0 mg/kg/injection, schedule: Q01DX001 (ip), vehicle: acetone 103 % of control | dose: 400.0 mg/kg/injection, schedule: Q01DX001 (ip), vehicle: acetone 104 % of control

COc1cc(OC)c2c(c1)Oc1cc(OC)cc(OC)c1C2
inactive: [14] 97 % of control | [15] 96 % of control | [16] 95 % of control

CC(C)N(CCCOC(=O)c1ccc(N)cc1)C(C)C
inactive: dose: 25.0 mg/kg/injection, schedule: Q01DX009 (ip), vehicle: saline 100 % of control | dose: 25.0 mg/kg/injection, schedule: Q04DX003 (ip), vehicle: saline 100 % of control | dose: 50.0 mg/kg/injection, schedule: Q01DX009 (ip), vehicle: saline 100 % of control | dose: 50.0 mg/kg/injection, schedule: Q04DX003 (ip), vehicle: saline 91 % of control | dose: 100.0 mg/kg/injection, schedule: Q01DX009 (ip), vehicle: saline 100 % of control | dose: 100.0 mg/kg/injection, schedule: Q04DX003 (ip), vehicle: saline 100 % of control
